In series [1] the test system is Tobacco seeds germinated on MS medium containing DAS. Set-up: species or system Nicotiana tabacum. The settings on record: in vivo.
For series [2], the system named is Tobacco seeds germinated on MS medium containing DON. Set-up: species or system Nicotiana tabacum. The conditions noted are these: in vivo.
In a further series the test system is wheat. The settings on record: in vivo; cited from earlier work.
Series [3] relates to Phytophthora infestans, Colletotrichum coccodes, fusarium solani, fusarium sulphureum, Phoma foreata and Rhizoctonia solani. The settings on record: cited from earlier work.
In series [4] the test system is transgenic tobacco plants. The conditions noted are these: in vivo; cited from earlier work.

For 4,15-diacetoxyscirpenol [DAS], in series [1], the “lowest concentration that would give the best inhibition of wild type tobacco seed growth” value was 1 µM.

With `CC1=C[C@H]2O[C@@H]3[C@H](O)C[C@](C)([C@@]2(CO)[C@H](O)C1=O)[C@]31CO1` [DON, Deoxynivalenol], the “lowest concentration that would give the best inhibition of wild type tobacco seed growth” value in series [2] came out at 10 µM. In addition, the inhibition toward wheat result with wheat is “far more inhibitory than DAS”.

B1: PAP: 29-kDa ribosome inactivating protein (protein)
chain: VNTIIYNVGSTTISKYATFLNDLRNEAKDPSLKCYGIPMLPNTNTNPKYVLVELQGSNKKTITLMLRRNNLYVMGYSDPFETNKCRYHIFNDISGTERQDVETTLCPNANSRVSKNINFDSRYPTLESKAGVKSRSQVQLGIQILDSNIGKISGVMSFTEKTEAEFLLVAIQMVSEAARFKYIENQVKTNFNRAFNPNPKVLNLQETWGKISTAIHDAKNGVLPKPLELVDASGAKWIVLRVDEIKPDVALLNYVGGSCQTTY
With B1, in series [3], the “effect on growth of fungi in vitro” value is on record as “no effect on the growth”. Moreover, the “phenotype of PAP-expressing tobacco plants” value in series [4] is “stunted, mottled phenotype”.

These data come from patent US8026410B2 (priority 2003, dated 2011).
